The text below walks through data of patent US3969532A, “1-Aryl-3-(2-hydroxyethyl) thioureas for treating depression” (The Dow Chemical Company, priority 1975, dated 1976).

This experiment deals with reserpine-induced ptosis. In words: Antagonism of reserpine-induced ptosis in mice (antidepressant test). To be noted: for ED50: Mus musculus, 1.25 h; for inhibition of reserpine-induced ptosis (in words): comparative trials, dosages of 60 mg/kg (i.p.). Format: in vivo.
Where [1] appears, read: mice, compound oral 30 minutes before i.p. reserpine, ptosis noted 45 minutes after reserpine, read-out: ED50 (median effective dose protecting 50% of mice from reserpine-induced ptosis), oral.
The mark [2] stands for this setting: ip, mice, compound i.p. 30 minutes before i.p. reserpine, ptosis noted 45 minutes after reserpine, read-out: ED50 (median effective dose protecting 50% of mice from reserpine-induced ptosis), i.p.

Like-named read-outs stand apart in the source and are kept apart here.

Description: The antidepressant properties of the compounds employed in the methods of the present invention are determined by measuring their ability to counteract ptosis induced in animals by the intraperitoneal injection of reserpine. […] Forty-five minutes after the administration of reserpine, the presence or absence of ptosis is noted. The percent inhibition of ptosis is noted and the median effective dose (ED50) of each test ingredient which protected 50% of the test mice from reserpine-induced ptosis was calculated.

`CN(C)CCC=C1c2ccccc2COc2ccccc21` [Doxepin]: the ED50 (in general, the midpoint of the dose-response relation) reads like this: under setting [1], 27 mg/kg; under setting [2], 27 mg/kg.

For `Cc1ccc(CNC(=S)NCCO)c(C)c1` [Compound 1, 1-(2,4-dimethylbenzyl)-3-(2-hydroxyethyl)thiourea], the ED50 reads like this: under setting [1], 6.8 mg/kg; under setting [2], 11 mg/kg.

Regarding `COc1ccc(NC(=S)NCCO)c(OC)c1` [Compound 3, 1-(2,4-dimethoxyphenyl)-3-(2-hydroxyethyl)thiourea], the ED50 under setting [2] amounted to 38 mg/kg.

On to `CN(C)CCCN1c2ccccc2CCc2ccccc21` [Imipramine], for which the ED50 (po, read-out: ED50 (median effective dose protecting 50% of mice from reserpine-induced ptosis), oral) worked out at 14 mg/kg.

Regarding `COc1ccc(NC(=S)NCCO)c(C)c1` [Compound 2, 1-(4-methoxy-2-methylphenyl)-3-(2-hydroxyethyl)thiourea], the ED50 is, setting by setting: under setting [1], 16.2 mg/kg; under setting [2], 10 mg/kg.

For the compound `COc1ccc(NC(=S)NCCO)cc1OC` [3,4-dimethoxy], the “inhibition of reserpine-induced ptosis (in words)” value was “did not inhibit reserpine-induced ptosis”.

Consider `COc1ccccc1NC(=S)NCCO` [Compound 2-methoxy], for which the “inhibition of reserpine-induced ptosis (in words)” value is “did not inhibit reserpine-induced ptosis”.
